# Measured values as given in patent publication US7732452B2, “Thiophene derivatives which are HM74A agonists” (Hoffmann-La Roche Inc., priority 2005, dated 2010).
# Biological target: T1, HM74A (Homo sapiens, UniProt Q8TDS4)
# T1 construct: expressed in transfected cells; pcDNA3.1 vectors; co-expressing chimeric G protein Gqi9
# Experiment: Secondary fluorescent calcium indicator assay (FLIPR)
# Type: cell-based
# Conditions: HEK-293 cells stably expressing HM74A and chimeric G protein Gqi9; % stimulation of maximal nicotinic acid response (100 μM)
# Experimental: Secondary Fluorescent Calcium Indicator Assay (FLIPR)
# HEK-293 cells were grown in tissue culture medium (DMEM/Nut mix F12 Medium with Glutamax I (Invitrogen), containing 10% FBS) at 37° C. in a 5% CO2 atmosphere. These cells were cultured in 6-well dishes at 3×10^5 cells/well and double transfected with DNA vectors (pcDNA3.1, Invitrogen) expressing either HM74A or HM74 and the chimeric G protein Gqi9. Two days after transfection the wells were combined and plated in 150 cm^2 flasks, in the presence of 50 μg/ml Hygromycin (Invitrogen) and 500 μg/ml Geneticin (Gibco). Fourteen days after plating, colonies were picked, expanded and analyzed for expression using a functional assay (FLIPR). Stable transfected HEK-293 cells expressing either HM74A or HM74 and the chimeric G protein Gqi9 were plated at 50,000 cells/well in black 96-well plates with clear bottom (Costar) and cultured to confluency overnight in growth media (DMEM/Nut mix F12 Medium with Glutamax I (Invitrogen), containing 10% FBS) at 37° C. in a humidified cell incubator containing 5% CO2. Growth media was aspirated and replaced with 100 μl of 1×FLIPR Calcium Assay Dye (Molecular Devices) in Hank's balanced salt solution (HBSS) containing 10 mM HEPES, and […] probenecid (Sigma), for 1 hour at 37° C. Cell plates were transferred to a FLIPR unit (Molecular Devices), and 50 μl of 3× compound dilution were added. Fluorescence emissions were measured and the effects of compounds were expressed as % stimulation of maximal nicotinic acid response (100 μM). Sigmoidal curves were fitted using the XLfit3 program (ID Business Solutions Ltd. UK) and EC50 values determined.
# T1 sequence (Q8TDS4 whole entry): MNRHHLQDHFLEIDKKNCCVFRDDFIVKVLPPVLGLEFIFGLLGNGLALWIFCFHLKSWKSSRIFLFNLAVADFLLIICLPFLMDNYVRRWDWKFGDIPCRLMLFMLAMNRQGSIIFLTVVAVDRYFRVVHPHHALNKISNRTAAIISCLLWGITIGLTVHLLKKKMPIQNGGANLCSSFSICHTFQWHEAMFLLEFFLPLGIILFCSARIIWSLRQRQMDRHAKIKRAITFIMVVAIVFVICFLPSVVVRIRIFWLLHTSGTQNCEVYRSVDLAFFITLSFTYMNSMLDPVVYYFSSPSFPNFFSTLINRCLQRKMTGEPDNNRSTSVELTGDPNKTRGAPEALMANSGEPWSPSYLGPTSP
row,Structure (SMILES),EC50 [nM]
1,"O=C(COc1ccc(-c2ccccc2)cc1)Nc1cscc1C(=O)O [Example 2, 4-[2-(Biphenyl-4-yloxy)-acetylamino]-thiophene-3-carboxylic acid]",48.7
2,"CC(C)(C)c1ccc(OCC(=O)Nc2cscc2C(=O)O)cc1 [Example 23, 4-[2-(4-tert-Butyl-phenoxy)-acetylamino]-thiophene-3-carboxylic acid]",225
3,"O=C(COc1ccc(-c2ccc(F)cc2)cn1)Nc1cscc1C(=O)O [Example 11, 4-{2-[5-(4-Fluoro-phenyl)-pyridin-2-yloxy]-acetylamino}-thiophene-3-carboxylic acid]",131

# Test system: not given
# Experiment: not given
# Conditions: not given
row,Structure (SMILES),melting point [°C]
1,"COc1ccccc1-c1ccc(OCC(=O)Nc2cscc2C(=O)O)cc1 [Example 3, 4-[2-(2′-Methoxy-biphenyl-4-yloxy)-acetylamino]-thiophene-3-carboxylic acid]",196 to 199
2,"CC(=O)c1cccc(-c2ccc(OCC(=O)Nc3cscc3C(=O)O)cc2)c1 [Example 8, 4-[2-(3′-Acetyl-biphenyl-4-yloxy)-acetylamino]-thiophene-3-carboxylic acid]",212 to 214
3,"COc1ccccc1-c1ccc(OCC(=O)Nc2cscc2C(=O)O)nc1 [Example 10, 4-{2-[5-(2-Methoxy-phenyl)-pyridin-2-yloxy]-acetylamino}-thiophene-3-carboxylic acid]",194 to 197
4,"O=C(COc1ccc(-c2ccccc2Cl)cn1)Nc1cscc1C(=O)O [Example 19, 4-{2-[5-(2-Chloro-phenyl)-pyridin-2-yloxy]-acetylamino}-thiophene-3-carboxylic acid]",218 to 223
5,"O=C(COc1ccc(-c2ccccc2)cc1)Nc1cscc1C(=O)O [Example 2, 4-[2-(Biphenyl-4-yloxy)-acetylamino]-thiophene-3-carboxylic acid]",247 to 251
6,"CC(=O)Nc1cccc(-c2ccc(OCC(=O)Nc3cscc3C(=O)O)cc2)c1 [Example 6, 4-[2-(3′-Acetylamino-biphenyl-4-yloxy)-acetylamino]-thiophene-3-carboxylic acid]",250 to 253
7,"Cc1ccccc1-c1ccc(OCC(=O)Nc2cscc2C(=O)O)cc1 [Example 5, 4-[2-(2′-Methyl-biphenyl-4-yloxy)-acetylamino]-thiophene-3-carboxylic acid]",207 to 209
8,"O=C(COc1ccc(-c2cccc(Cl)c2)cc1)Nc1cscc1C(=O)O [Example 4, 4-[2-(3′-Chloro-biphenyl-4-yloxy)-acetylamino]-thiophene-3-carboxylic acid]",216 to 218
9,"COc1cccc(-c2ccc(OCC(=O)Nc3cscc3C(=O)O)cc2)c1 [Example 7, 4-[2-(3′-Methoxy-biphenyl-4-yloxy)-acetylamino]-thiophene-3-carboxylic acid]",187 to 189
10,"O=C(COc1ccc(Cl)c(Cl)c1)Nc1cscc1C(=O)O [Example 18, 4-[2-(3,4-Dichloro-phenoxy)-acetylamino]-thiophene-3-carboxylic acid]",258 to 264
11,"O=C(COc1ccc(-c2ccc(F)cc2)cc1)Nc1cscc1C(=O)O [Example 1, 4-[2-(4′-Fluoro-biphenyl-4-yloxy)-acetylamino]-thiophene-3-carboxylic acid]",244 to 251
